The results in this text go back to patent US9056914B2, “Anticancer derivatives, preparation thereof and therapeutic use thereof” (priority 2010, dated 2015).

pIC50: −log10 of the molar value.

For the first test, the system named is HCT116 cells. The test can be described thus: Inhibition of proliferation of HCT116 cells by tomaymycin dimers (14C-thymidine incorporation). Conditions: Homo sapiens, HCT-116; HCT116, 3 days culture, 14C-thymidine incorporation at 96 h; read-out: Inhibition of proliferation (14C-thymidine pulse at 96 h) IC50 HCT116. Format: cell-based. On the procedure: (§1) Evaluation of the Inhibition of Proliferation of the Cell Lines MDA-MB-231, MDA-A1 and HCT116 with the Compounds of Formula (IA) with RCG1=—SZa (Za=SMe) or RCG1=—C(═O)ZbRb (ZbRb=OMe)
(§2) MDA-MB-231, MDA-A1 or HCT116 cells in their exponential growth phase were trypsinized and resuspended in their respective culture medium (DMEM/F12 Gibco #21331, 10% FCS Gibco #10500-056, […] Glutamine Gibco #25030 for the MDA cells; DMEM Gibco #11960, 10% FCS Gibco #10500-056, 2 mM Glutamine Gibco #25030 for the HCT116 cells). The cell suspension was seeded in Cytostar 96-well culture plates (GE Healthcare Europe, #RPNQ0163) in the complete culture medium containing serum to a density of 5000 cells/well (MDA-MB-231, MDA-A1, HCT116). After incubation for 4 hours, successive dilutions of the tomaymycin dimers were added to the wells in triplicate for each concentration. The cells were cultured for 3 days at 37° C. under an atmosphere of 5% CO2 in the presence of the cytotoxic agents. On the fourth day, 10 μl of a solution of ^14C-thymidine (0.1 μCi/well, Perkin Elmer #NEC56825000) were added to each well. The incorporation of ^14C-thymidine was measured 96 hours after the start of the experiment with a Microbeta radioactivity counter (Perkin Elmer). The data are expressed in the form of a percentage of survival by determining the ratio between the Count obtained with the cells treated with the cytotoxic agents and that obtained with the cells of the control wells (treated with the culture medium alone).
(In general: Uptake of a labelled nucleoside into DNA is a usual measure of proliferation.)
As to `C/C=C1\C[C@H]2C=Nc3cc(OCc4cc(OCCN(CCOCCOCCOC)CC(C)(C)SSC)cc(COc5cc6c(cc5OC)C(=O)N5C/C(=C/C)C[C@H]5C=N6)n4)c(OC)cc3C(=O)N2C1`, the pIC50 was 10.21.

For the compound `C/C=C1\C[C@H]2C=Nc3cc(OCc4cc(OCCN(CCCC(=O)OCC)CCOCCOCCOC)cc(COc5cc6c(cc5OC)C(=O)N5C/C(=C/C)C[C@H]5C=N6)n4)c(OC)cc3C(=O)N2C1`, the pIC50 was 10.74.

Take `C/C=C1\C[C@H]2C=Nc3cc(OCc4cc(OCCN(CCOCCOCCOC)CCC(=O)OC)cc(COc5cc6c(cc5OC)C(=O)N5C/C(=C/C)C[C@H]5C=N6)n4)c(OC)cc3C(=O)N2C1`: the pIC50 was 9.63.

For `C/C=C1\C[C@H]2C=Nc3cc(OCc4cc(OCCN(CCOCCOCCN5CCOCC5)CC(C)(C)SSC)cc(COc5cc6c(cc5OC)C(=O)N5C/C(=C/C)C[C@H]5C=N6)n4)c(OC)cc3C(=O)N2C1`, the pIC50 is 10.32.

`C/C=C1\C[C@H]2C=Nc3cc(OCc4cc(OCCN(CCCC(=O)OCC)C(=O)CCOCCOCCOCCOC)cc(COc5cc6c(cc5OC)C(=O)N5C/C(=C/C)C[C@H]5C=N6)n4)c(OC)cc3C(=O)N2C1`: the pIC50 was 8.30.

The test system of the next test is MDA-MB-231 cells. The test can be described thus: Inhibition of proliferation of MDA-MB-231 cells by tomaymycin dimers (14C-thymidine incorporation). In kind it is cell-based. Conditions: Homo sapiens, MDA-MB231, 3 days culture, 14C-thymidine incorporation at 96 h, read-out: Inhibition of proliferation (14C-thymidine pulse at 96 h) IC50 MDA-MB231. Here is the method: as §1, §2
On to `C/C=C1\C[C@H]2C=Nc3cc(OCc4cc(OCCN(CCOCCOCCOC)CC(C)(C)SSC)cc(COc5cc6c(cc5OC)C(=O)N5C/C(=C/C)C[C@H]5C=N6)n4)c(OC)cc3C(=O)N2C1`, for which the pIC50 is 9.89.

As for `C/C=C1\C[C@H]2C=Nc3cc(OCc4cc(OCCN(CCCC(=O)OCC)CCOCCOCCOC)cc(COc5cc6c(cc5OC)C(=O)N5C/C(=C/C)C[C@H]5C=N6)n4)c(OC)cc3C(=O)N2C1`, the pIC50 is 10.39.

For the compound `C/C=C1\C[C@H]2C=Nc3cc(OCc4cc(OCCN(CCOCCOCCOC)CCC(=O)OC)cc(COc5cc6c(cc5OC)C(=O)N5C/C(=C/C)C[C@H]5C=N6)n4)c(OC)cc3C(=O)N2C1`, the pIC50 is 9.42.

With `C/C=C1\C[C@H]2C=Nc3cc(OCc4cc(OCCN(CCOCCOCCN5CCOCC5)CC(C)(C)SSC)cc(COc5cc6c(cc5OC)C(=O)N5C/C(=C/C)C[C@H]5C=N6)n4)c(OC)cc3C(=O)N2C1`, the pIC50 is 10.09.

On to `C/C=C1\C[C@H]2C=Nc3cc(OCc4cc(OCCN(CCCC(=O)OCC)C(=O)CCOCCOCCOCCOC)cc(COc5cc6c(cc5OC)C(=O)N5C/C(=C/C)C[C@H]5C=N6)n4)c(OC)cc3C(=O)N2C1`, for which the pIC50 is 8.25.

The next test has as its system MDA-A1 cells. The test is described as follows: Inhibition of proliferation of MDA-A1 cells by tomaymycin dimers (14C-thymidine incorporation). In kind it is cell-based. Conditions: MDA-A1, 3 days culture, 14C-thymidine incorporation at 96 h; read-out: Inhibition of proliferation (14C-thymidine pulse at 96 h) IC50 MDA-A1. Here is the method:
as §1, §2
`C/C=C1\C[C@H]2C=Nc3cc(OCc4cc(OCCN(CCOCCOCCOC)CC(C)(C)SSC)cc(COc5cc6c(cc5OC)C(=O)N5C/C(=C/C)C[C@H]5C=N6)n4)c(OC)cc3C(=O)N2C1`: the pIC50 is 7.79.

`C/C=C1\C[C@H]2C=Nc3cc(OCc4cc(OCCN(CCCC(=O)OCC)CCOCCOCCOC)cc(COc5cc6c(cc5OC)C(=O)N5C/C(=C/C)C[C@H]5C=N6)n4)c(OC)cc3C(=O)N2C1`: the pIC50 was 8.46.

On to `C/C=C1\C[C@H]2C=Nc3cc(OCc4cc(OCCN(CCOCCOCCOC)CCC(=O)OC)cc(COc5cc6c(cc5OC)C(=O)N5C/C(=C/C)C[C@H]5C=N6)n4)c(OC)cc3C(=O)N2C1`, for which the pIC50 was 7.75.

As to `C/C=C1\C[C@H]2C=Nc3cc(OCc4cc(OCCN(CCOCCOCCN5CCOCC5)CC(C)(C)SSC)cc(COc5cc6c(cc5OC)C(=O)N5C/C(=C/C)C[C@H]5C=N6)n4)c(OC)cc3C(=O)N2C1`, the pIC50 was 7.58.

In the case of `C/C=C1\C[C@H]2C=Nc3cc(OCc4cc(OCCN(CCCC(=O)OCC)C(=O)CCOCCOCCOCCOC)cc(COc5cc6c(cc5OC)C(=O)N5C/C(=C/C)C[C@H]5C=N6)n4)c(OC)cc3C(=O)N2C1`, the pIC50 is below 7.30.
